From patent US20190031665A1, “DERIVATIVES OF PYRROLOIMIDAZOLE OR ANALOGUES THEREOF WHICH ARE USEFUL FOR THE TREATMENT OF INTER ALIA CANCER” (EMCURE PHARMACEUTICALS LIMITED, priority 2016, published 2019)

What was measured:
[1] = molecular target: T1, human indoleamine 2,3-dioxygenase 1 (hIDO1) (Homo sapiens, UniProt P14902); assay: In-vitro human indoleamine 2,3-dioxygenase 1 (IDO1) enzyme assay; type: biochemical; conditions: for IC50: hIDO1 enzyme; for inhibition at 1 µM: hIDO1 enzyme at 1.0 μM concentration; for inhibition at 10 µM: hIDO1 enzyme at 10.0 μM concentration
T1 construct: His tag (N); purchased BPS Bioscience, San Diego, Calif., USA; host or cells: E. coli
T1 sequence (P14902 whole entry): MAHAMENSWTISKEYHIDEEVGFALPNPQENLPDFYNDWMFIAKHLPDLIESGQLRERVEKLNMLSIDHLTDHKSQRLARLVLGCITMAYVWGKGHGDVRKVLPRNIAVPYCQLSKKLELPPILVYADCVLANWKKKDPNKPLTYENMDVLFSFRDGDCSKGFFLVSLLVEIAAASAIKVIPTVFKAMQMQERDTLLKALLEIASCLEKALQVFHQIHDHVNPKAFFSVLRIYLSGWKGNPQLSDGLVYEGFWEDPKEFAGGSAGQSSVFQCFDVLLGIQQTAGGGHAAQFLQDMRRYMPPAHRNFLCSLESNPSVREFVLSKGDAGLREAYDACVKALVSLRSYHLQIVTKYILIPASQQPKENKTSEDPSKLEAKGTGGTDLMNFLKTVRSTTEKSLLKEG
Method: (§1) In-vitro human indoleamine 2,3-dioxygenase 1 (IDO1) enzyme assay: In the in-vitro human indoleamine 2,3-dioxygenase 1 (hIDO1) enzyme assay for screening inhibitor compounds, hIDO1 with an N-terminal histidine tag expressed and purified from E. coli (BPS Bioscience, San Diego, Calif., USA) was used. All other materials were procured from Sigma-Aldrich, St. Louis, Mo., USA.
The assay method for monitoring the conversion of L-tryptophan to N-formylkynurenine by hlDO1 was carried out as follows. hlDO1 (50 ng) was incubated with tryptophan (80 μM) in the presence of ascorbic acid (10 mM), methylene blue (10 μM), catalase (100 μg/ml) and 0.01% Tween-20 in sodium phosphate buffer (50 mM; pH 6.5) at 37° C. for 60 min. The reaction was terminated with 200 mM piperidine (PIP) and further incubated at about 65° C. for about 20 minutes to convert N-formylkynurenine (NFK) to NFK-PIP. The reaction mixture was then incubated at room temperature for about 1 hour. The fluorescence intensity was read in a fluorescence microplate reader at an excitation wavelength of 400 nm and emission wavelength of 500 nm. Percent inhibition at each concentration of test compounds was determined by estimating the decrease in NFK-PIP. Data were analyzed using nonlinear regression to generate IC50 values using Graph Pad Prism® 6.

[2] = molecular target: T2, human tryptophan 2,3-dioxygenase (hTDO) (Homo sapiens, UniProt P48775); assay: In-vitro human tryptophan 2,3-dioxygenase (TDO) enzyme assay; type: biochemical; conditions: for inhibition at 1 µM: hTDO enzyme at 1.0 μM concentration; for inhibition at 10 µM: hTDO enzyme at 10.0 μM concentration
T2 construct: His tag (N); purchased BPS Bioscience, San Diego, Calif., USA; host or cells: E. coli
T2 sequence (P48775 whole entry): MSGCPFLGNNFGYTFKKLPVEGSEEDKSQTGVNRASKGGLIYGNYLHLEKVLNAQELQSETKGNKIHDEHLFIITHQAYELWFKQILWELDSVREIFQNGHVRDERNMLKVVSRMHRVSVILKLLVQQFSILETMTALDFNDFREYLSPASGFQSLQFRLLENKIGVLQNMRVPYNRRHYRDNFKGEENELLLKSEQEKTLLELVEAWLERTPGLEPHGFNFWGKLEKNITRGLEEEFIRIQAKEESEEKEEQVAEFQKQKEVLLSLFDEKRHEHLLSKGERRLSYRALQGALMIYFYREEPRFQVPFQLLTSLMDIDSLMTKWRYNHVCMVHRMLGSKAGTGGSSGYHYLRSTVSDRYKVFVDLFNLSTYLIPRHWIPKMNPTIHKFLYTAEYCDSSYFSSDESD
Method: as §1, with “In” for “In-vitro human indoleamine 2,3-dioxygenase 1 (IDO1) enzyme assay: In”, “tryptophan” for “indoleamine”, “(hTDO)” for “1 (hIDO1)”, “hTDO” for “hIDO1”
The assay monitoring method for the conversion of L-tryptophan to N-formylkynurenine by hTDO was carried out as follows. hTDO (125 ng) was incubated in the presence of 200 μM L-tryptophan, 100 mM sodium phosphate buffer (pH 7.0), 0.01% Tween-20 and 100 μM ascorbic acid at about 37° C. for about 60 minutes. The reaction was terminated with 200 mM piperidine (PIP) and further incubated at about 65° C. for about 20 minutes to convert N-formylkynurenine (NFK) to NFK-PIP. The reaction mixture was then incubated at room temperature for about 75 minutes. The fluorescence intensity was read in a fluorescence microplate reader at an excitation wavelength of 400 nm and emission wavelength of 500 nm. Percent inhibition at each concentration of test compounds was determined by estimating the decrease in NFK-PIP. Data were analyzed using nonlinear regression to generate IC50 values using Graph Pad Prism® 6.

SMILES | IC50 [1] [nM] | inhibition at 1 µM [1] [%] | inhibition at 10 µM [1] [%] | inhibition at 1 µM [2] [%] | inhibition at 10 µM [2] [%]
CC1=C(c2ccccc2)C(CC(=O)c2cccc(F)c2)n2cncc21 (stereo not shown) [Example 20, 1-(3-Fluoro-phenyl)-2-(7-methyl-6-phenyl-5H-pyrrolo[1,2-c]imidazol-5-yl)-ethanone] | > 500 | ≥ 50 | ≥ 50 | ≥ 50 | ≥ 50
CCOC(=O)CC1C(c2ccccc2)=C(C)c2cncn21 (stereo not shown) [Example 22] | – | ≤ 50 | ≥ 50 | – | ≥ 50
COC(=O)c1cccc(C(=O)CC2C(c3ccccc3)=C(C)c3cncn32)c1 (stereo not shown) [Example 23, 3-[2-(7-Methyl-6-phenyl-5H-pyrrolo[1,2-c]imidazol-5-yl)-acetyl]-benzoic acid methyl ester] | – | ≤ 50 | ≥ 50 | ≥ 50 | ≥ 50
CC1=C(c2ccccc2)C(CC(=O)c2ccc(C(=O)O)cc2)n2cncc21 (stereo not shown) [Example 24, 4-[2-(7-Methyl-6-phenyl-5H-pyrrolo[1,2-c]imidazol-5-yl)-acetyl]-benzoic acid] | – | ≤ 50 | ≥ 50 | ≥ 50 | ≥ 50
CC1=C(c2ccccc2)C(CC(=O)c2ccc3ccccc3c2)n2cncc21 (stereo not shown) [Example 25, 2-(7-Methyl-6-phenyl-5H-pyrrolo[1,2-c]imidazol-5-yl)-1-naphthalen-2-yl-ethanone] | < 500 | ≥ 50 | ≥ 50 | ≥ 50 | ≥ 50
CC1=C(c2ccccc2)C(CC(=O)C2CC2)n2cncc21 (stereo not shown) [Example 26, 1-Cyclopropyl-2-(7-methyl-6-phenyl-5H-pyrrolo[1,2-c]imidazol-5-yl)-ethanone] | – | ≤ 50 | ≥ 50 | ≥ 50 | ≥ 50
CC1=C(c2ccccc2)C(CC(=O)c2ccc(C)cc2)n2cncc21 (stereo not shown) [Example 27, 2-(7-Methyl-6-phenyl-5H-pyrrolo[1,2-c]imidazol-5-yl)-1-p-tolyl-ethanone] | – | ≤ 50 | ≥ 50 | ≥ 50 | ≥ 50
CC1=C(c2ccccc2)C(CC(=O)c2ccc3c(c2)OCO3)n2cncc21 (stereo not shown) [Example 28, 1-Benzo[1,3]dioxol-5-yl-2-(7-methyl-6-phenyl-5H-pyrrolo[1,2-c]imidazol-5-yl)-ethanone] | < 500 | ≥ 50 | ≥ 50 | ≥ 50 | ≥ 50
CC1=C(c2ccccc2)C(CC(=O)c2cccc(C(F)(F)F)c2)n2cncc21 (stereo not shown) [Example 29, 2-(7-Methyl-6-phenyl-5H-pyrrolo[1,2-c]imidazol-5-yl)-1-(3-trifluoromethyl-phenyl)-ethanone] | < 500 | ≥ 50 | ≥ 50 | ≥ 50 | ≥ 50
COc1ccccc1C(=O)CC1C(c2ccccc2)=C(C)c2cncn21 (stereo not shown) [Example 32, 1-(2-methoxyphenyl)-2-(7-methyl-6-phenyl-5H-pyrrolo[1,2-c]imidazol-5-yl)ethan-1-one] | – | ≤ 50 | ≤ 50 | – | ≥ 50
COc1cccc(C(=O)CC2C(c3ccccc3)=C(C)c3cncn32)c1 (stereo not shown) [Example 33, 1-(3-Methoxy-phenyl)-2-(7-methyl-6-phenyl-5H-pyrrolo[1,2-c]imidazol-5-yl)-ethanone] | – | ≤ 50 | ≥ 50 | – | ≥ 50
CC1=C(c2ccccc2)C(CC(=O)c2ccc(F)cc2)n2cncc21 (stereo not shown) [Example 34, 1-(4-fluorophenyl)-2-(7-methyl-6-phenyl-5H-pyrrolo[1,2-c]imidazol-5-yl)ethan-1-one] | – | ≥ 50 | ≥ 50 | ≥ 50 | ≥ 50
CC1=C(c2ccccc2)C(CC(O)c2ccc(F)cc2)n2cncc21 (stereo not shown) [Example 35, 1-(4-fluorophenyl)-2-(7-methyl-6-phenyl-5H-pyrrolo[1,2-c]imidazol-5-yl)ethan-1-ol] | – | ≤ 50 | ≥ 50 | ≥ 50 | –
CC1=C(c2ccccc2)C(CC(=O)c2cc(F)ccc2F)n2cncc21 (stereo not shown) [Example 36, 1-(2,5-difluorophenyl)-2-(7-methyl-6-phenyl-5H-pyrrolo[1,2-c]imidazol-5-yl)ethan-1-one] | – | ≥ 50 | ≥ 50 | ≥ 50 | ≥ 50
COc1ccc(C(=O)CC2C(c3ccccc3)=C(C)c3cncn32)cc1 (stereo not shown) [Example 37, 1-(4-methoxyphenyl)-2-(7-methyl-6-phenyl-5H-pyrrolo[1,2-c]imidazol-5-yl)ethan-1-one] | < 500 | ≥ 50 | ≥ 50 | ≥ 50 | –
CC1=C(c2ccccc2)C(CC(=O)c2ccc(Cl)cc2)n2cncc21 (stereo not shown) [Example 38, 1-(4-chlorophenyl)-2-(7-methyl-6-phenyl-5H-pyrrolo[1,2-c]imidazol-5-yl)ethan-1-one] | < 500 | ≥ 50 | ≥ 50 | ≥ 50 | –
CC1=C(c2ccccc2)C(CC(=O)c2ccc(F)c(Cl)c2)n2cncc21 (stereo not shown) [Example 39, 1-(3-chloro-4-fluorophenyl)-2-(7-methyl-6-phenyl-5H-pyrrolo[1,2-c]imidazol-5-yl)ethan-1-one] | < 500 | ≥ 50 | ≥ 50 | ≥ 50 | –
CC1=C(c2ccccc2)C(CC(=O)c2cccc3ccccc23)n2cncc21 (stereo not shown) [Example 40, 2-(7-methyl-6-phenyl-5H-pyrrolo[1,2-c]imidazol-5-yl)-1-(naphthalen-1-yl)ethan-1-one] | – | ≥ 50 | ≥ 50 | ≥ 50 | –
CC1=C(c2ccccc2)C(CC(=O)c2ccc(-c3ccccc3)cc2)n2cncc21 (stereo not shown) [Example 41, 1-([1,1′-biphenyl]-4-yl)-2-(7-methyl-6-phenyl-5H-pyrrolo[1,2-c]imidazol-5-yl)ethan-1-one] | < 500 | ≥ 50 | ≥ 50 | ≥ 50 | –
CC1=C(c2ccccc2)C(CC(O)c2ccc(-c3ccccc3)cc2)n2cncc21 (stereo not shown) [Example 44, 1-([1,1′-biphenyl]-4-yl)-2-(7-methyl-6-phenyl-5H-pyrrolo[1,2-c]imidazol-5-yl)ethan-1-ol] | – | ≥ 50 | ≥ 50 | ≥ 50 | –
CC1=C(c2ccccc2)C(CC(=O)c2ccsc2)n2cncc21 (stereo not shown) [Example 45, 2-(7-methyl-6-phenyl-5H-pyrrolo[1,2-c]imidazol-5-yl)-1-(thiophen-3-yl)ethan-1-one] | – | ≤ 50 | ≥ 50 | ≥ 50 | –
CC1=C(c2ccccc2)C(CC(=O)c2ccc(N(C)C)cc2)n2cncc21 (stereo not shown) [Example 46, 1-(4-(dimethylamino)phenyl)-2-(7-methyl-6-phenyl-5H-pyrrolo[1,2-c]imidazol-5-yl)ethan-1-one] | – | ≤ 50 | ≥ 50 | ≥ 50 | –
CC1=C(c2ccccc2)C(CC(=O)c2ccc3c(c2)CCCC3)n2cncc21 (stereo not shown) [Example 47, 2-(7-methyl-6-phenyl-5H-pyrrolo[1,2-c]imidazol-5-yl)-1-(5,6,7,8-tetrahydronaphthalen-2-yl)ethan-1-one] | – | ≥ 50 | ≥ 50 | ≥ 50 | –
CC1=C(c2ccccc2)C(CC(=O)c2ccc(Oc3ccccc3)cc2)n2cncc21 (stereo not shown) [Example 48, 2-(7-methyl-6-phenyl-5H-pyrrolo[1,2-c]imidazol-5-yl)-1-(4-phenoxyphenyl)ethan-1-one] | > 500 | ≥ 50 | ≥ 50 | ≥ 50 | –
CC1=C(c2ccccc2)C(CC(=O)c2ccc(N3CCOCC3)cc2)n2cncc21 (stereo not shown) [Example 49, 2-(7-methyl-6-phenyl-5H-pyrrolo[1,2-c]imidazol-5-yl)-1-(4-morpholinophenyl)ethan-1-one] | – | ≤ 50 | ≥ 50 | ≥ 50 | –
